# Reference: ChEMBL document CHEMBL4138123, “Design, synthesis and biological evaluation of novel pyrazolochalcones as potential modulators of PI3K/Akt/mTOR pathway and inducers of apoptosis in breast cancer cells” (Eur J Med Chem, 2017)
# Experiments:
# Format in all cases: functional
# MDA-MB-468 = experiment: Cytotoxicity against human MDA-MB-468 cells assessed as cell growth at 0.1 uM after 48 hrs by sulforhodamine B assay relative to control; details: MDA-MB-468, 48 h, read-out: Activity
# MDA-MB-435 [1] = experiment: Cytotoxicity against human MDA-MB-435 cells assessed as growth inhibition after 48 hrs by sulforhodamine B assay; details: MDA-MB-435, 48 h
# TK-10 = experiment: Cytotoxicity against human TK10 cells assessed as cell growth at 0.1 uM after 48 hrs by sulforhodamine B assay relative to control; details: TK-10, 48 h, read-out: Activity
# NCI-H322M = experiment: Cytotoxicity against human NCI-H322M cells assessed as cell growth at 1 uM after 48 hrs by sulforhodamine B assay relative to control; details: read-out: Activity
# K562 [2] = experiment: Cytotoxicity against human K562 cells assessed as growth inhibition after 48 hrs by sulforhodamine B assay; details: K562, 48 h
# OVCAR-4 [3] = experiment: Cytotoxicity against human OVCAR4 cells assessed as cell growth at 1 uM after 48 hrs by sulforhodamine B assay relative to control; details: OVCAR-4, 48 h, read-out: Activity
# BT-549 [4] = experiment: Cytotoxicity against human BT549 cells assessed as cell growth at 10 uM after 48 hrs by sulforhodamine B assay relative to control; details: BT-549, 48 h, read-out: Activity
# SK-OV-3 = experiment: Cytotoxicity against human SKOV3 cells assessed as cell growth at 0.01 uM after 48 hrs by sulforhodamine B assay relative to control; details: SK-OV-3, 48 h, read-out: Activity
# NCI-H460 [5] = experiment: Cytotoxicity against human NCI-H460 cells assessed as cell growth at 1 uM after 48 hrs by sulforhodamine B assay relative to control; details: NCI-H460, 48 h, read-out: Activity
# K562 [6] = experiment: Cytotoxicity against human K562 cells assessed as cell growth at 100 uM after 48 hrs by sulforhodamine B assay relative to control; details: K562, 48 h, read-out: Activity
# T47D = experiment: Cytotoxicity against human T47D cells assessed as growth inhibition after 48 hrs by sulforhodamine B assay
# OVCAR-4 [7] = experiment: Cytotoxicity against human OVCAR4 cells assessed as cell growth at 10 uM after 48 hrs by sulforhodamine B assay relative to control; details: OVCAR-4, 48 h, read-out: Activity
# HOP-62 [8] = experiment: Cytotoxicity against human HOP62 cells assessed as cell growth at 100 uM after 48 hrs by sulforhodamine B assay relative to control; details: HOP-62, 48 h, read-out: Activity
# IGROV-1 = experiment: Cytotoxicity against human IGROV1 cells assessed as cell growth at 0.01 uM after 48 hrs by sulforhodamine B assay relative to control; details: IGROV-1, 48 h, read-out: Activity
# SF-539 = experiment: Cytotoxicity against human SF539 cells assessed as cell growth at 1 uM after 48 hrs by sulforhodamine B assay relative to control; details: SF-539, 48 h, read-out: Activity
# Malme-3M [9] = experiment: Cytotoxicity against human MALME-3M cells assessed as cell growth at 1 uM after 48 hrs by sulforhodamine B assay relative to control; details: read-out: Activity
# NCI-H226 = experiment: Cytotoxicity against human NCI-H226 cells assessed as cell growth at 100 uM after 48 hrs by sulforhodamine B assay relative to control; details: NCI-H226, 48 h, read-out: Activity
# NCI-H23 [10] = experiment: Cytotoxicity against human NCI-H23 cells assessed as cell growth at 1 uM after 48 hrs by sulforhodamine B assay relative to control; details: NCI-H23, 48 h, read-out: Activity
# BT-549 [11] = experiment: Cytotoxicity against human BT549 cells assessed as cell growth at 0.1 uM after 48 hrs by sulforhodamine B assay relative to control; details: BT-549, 48 h, read-out: Activity
# HOP-62 [12] = experiment: Cytotoxicity against human HOP62 cells assessed as cell growth at 10 uM after 48 hrs by sulforhodamine B assay relative to control; details: HOP-62, 48 h, read-out: Activity
# NCI-H23 [13] = experiment: Cytotoxicity against human NCI-H23 cells assessed as cell growth at 0.01 uM after 48 hrs by sulforhodamine B assay relative to control; details: NCI-H23, 48 h, read-out: Activity
# NCI-H460 [14] = experiment: Cytotoxicity against human NCI-H460 cells assessed as cell growth at 0.1 uM after 48 hrs by sulforhodamine B assay relative to control; details: NCI-H460, 48 h, read-out: Activity
# UACC-257 = experiment: Cytotoxicity against human UACC257 cells assessed as cell growth at 0.01 uM after 48 hrs by sulforhodamine B assay relative to control; details: UACC-257, 48 h, read-out: Activity
# SR = experiment: Cytotoxicity against human SR cells assessed as cell growth at 0.01 uM after 48 hrs by sulforhodamine B assay relative to control; details: read-out: Activity
# OVCAR-5 = experiment: Cytotoxicity against human OVCAR5 cells assessed as cell growth at 100 uM after 48 hrs by sulforhodamine B assay relative to control; details: OVCAR-5, 48 h, read-out: Activity
# OVCAR-3 = experiment: Cytotoxicity against human OVCAR3 cells assessed as cell growth at 0.01 uM after 48 hrs by sulforhodamine B assay relative to control; details: OVCAR-3, 48 h, read-out: Activity
# 786-0 = experiment: Cytotoxicity against human 786-0 cells assessed as cell growth at 0.01 uM after 48 hrs by sulforhodamine B assay relative to control; details: 786-0, 48 h, read-out: Activity
# MCF7 = experiment: Cytotoxicity against human MCF7 cells assessed as cell growth at 100 uM after 48 hrs by sulforhodamine B assay relative to control; details: MCF7, 48 h, read-out: Activity
# SW-620 = experiment: Cytotoxicity against human SW620 cells assessed as cell growth at 100 uM after 48 hrs by sulforhodamine B assay relative to control; details: SW-620, 48 h, read-out: Activity
# SN12C = experiment: Cytotoxicity against human SN12C cells assessed as growth inhibition after 48 hrs by sulforhodamine B assay
# OVCAR-8 = experiment: Cytotoxicity against human OVCAR8 cells assessed as cell growth at 10 uM after 48 hrs by sulforhodamine B assay relative to control; details: OVCAR-8, 48 h, read-out: Activity
# MDA-MB-435 [15] = experiment: Cytotoxicity against human MDA-MB-435 cells assessed as cell growth at 0.01 uM after 48 hrs by sulforhodamine B assay relative to control; details: MDA-MB-435, 48 h, read-out: Activity
# KM12 = experiment: Cytotoxicity against human KM12 cells assessed as cell growth at 0.1 uM after 48 hrs by sulforhodamine B assay relative to control; details: KM12, 48 h, read-out: Activity
# COLO 205 = experiment: Cytotoxicity against human COLO205 cells assessed as growth inhibition after 48 hrs by sulforhodamine B assay; details: COLO 205, 48 h
# Malme-3M [16] = experiment: Cytotoxicity against human MALME-3M cells assessed as cell growth at 0.1 uM after 48 hrs by sulforhodamine B assay relative to control; details: read-out: Activity
# K562 [17] = experiment: Cytotoxicity against human K562 cells assessed as cell growth at 10 uM after 48 hrs by sulforhodamine B assay relative to control; details: K562, 48 h, read-out: Activity
structure (smiles),measurement,setting,value
COc1cc(C(=O)/C=C/c2cc(-c3cc(OC)c(OC)c(OC)c3)n[nH]2)cc(OC)c1OC,growth at 0.1 µM,MDA-MB-468,84%
same,LC50,MDA-MB-435 [1],5820 nM
same,TGI,MDA-MB-435 [1],2950 nM
same,growth at 0.1 µM,TK-10,109%
same,growth at 1 µM,NCI-H322M,89%
same,LC50 (concentration killing 50% of cells),K562 [2],> 100000 nM
same,TGI,K562 [2],> 100000 nM
same,growth at 1 µM,OVCAR-4 [3],79%
same,growth at 10 µM,BT-549 [4],-96%
same,growth at 0.01 µM,SK-OV-3,100%
same,growth at 1 µM,NCI-H460 [5],89%
same,growth at 100 µM,K562 [6],1%
same,LC50,T47D,5860 nM
same,TGI,T47D,2570 nM
same,growth at 10 µM,OVCAR-4 [7],-100%
same,growth at 100 µM,HOP-62 [8],-100%
same,growth at 0.01 µM,IGROV-1,104%
same,growth at 1 µM,SF-539,66%
same,growth at 1 µM,Malme-3M [9],89%
same,growth at 100 µM,NCI-H226,-50%
same,growth at 1 µM,NCI-H23 [10],97%
same,growth at 0.1 µM,BT-549 [11],105%
same,growth at 10 µM,HOP-62 [12],-91%
same,growth at 0.01 µM,NCI-H23 [13],100%
same,growth at 0.1 µM,NCI-H460 [14],104%
same,growth at 0.01 µM,UACC-257,94%
same,growth at 0.01 µM,SR,111%
same,growth at 100 µM,OVCAR-5,-72%
same,growth at 0.01 µM,OVCAR-3,107%
same,growth at 0.01 µM,786-0,101%
same,growth at 100 µM,MCF7,-72%
same,growth at 100 µM,SW-620,-95%
same,LC50,SN12C,5990 nM
same,TGI,SN12C,2970 nM
same,growth at 10 µM,OVCAR-8,-76%
same,growth at 0.01 µM,MDA-MB-435 [15],99%
same,growth at 0.1 µM,KM12,103%
same,LC50,COLO 205,5590 nM
same,TGI,COLO 205,3130 nM
same,growth at 0.1 µM,Malme-3M [16],101%
COc1ccc(C(=O)/C=C/c2cc(-c3ccc(OC)c(OC)c3)n[nH]2)cc1OC,growth at 0.1 µM,MDA-MB-468,80%
same,GI50,MDA-MB-435 [1],1720 nM
same,growth at 0.1 µM,TK-10,96%
same,growth at 1 µM,NCI-H322M,94%
same,GI50,K562 [2],619 nM
same,TGI,K562 [2],> 100000 nM
same,growth at 1 µM,OVCAR-4 [3],72%
same,growth at 10 µM,BT-549 [4],-87%
same,growth at 0.01 µM,SK-OV-3,83%
same,growth at 1 µM,NCI-H460 [5],36%
same,GI50,T47D,1360 nM
same,TGI,T47D,6650 nM
same,growth at 10 µM,OVCAR-4 [7],-7%
same,growth at 100 µM,HOP-62 [8],-13%
same,growth at 0.01 µM,IGROV-1,104%
same,growth at 1 µM,SF-539,35%
same,growth at 1 µM,Malme-3M [9],104%
same,growth at 100 µM,NCI-H226,-5%
same,growth at 1 µM,NCI-H23 [10],94%
same,growth at 0.1 µM,BT-549 [11],89%
same,growth at 10 µM,HOP-62 [12],-25%
same,growth at 0.01 µM,NCI-H23 [13],101%
same,growth at 0.1 µM,NCI-H460 [14],99%
same,growth at 0.01 µM,UACC-257,93%
same,growth at 0.01 µM,SR,94%
same,growth at 100 µM,OVCAR-5,-41%
same,growth at 0.01 µM,OVCAR-3,107%
same,growth at 0.01 µM,786-0,92%
same,growth at 100 µM,MCF7,-40%
same,growth at 100 µM,SW-620,-27%
same,growth at 10 µM,K562 [17],3%
same,GI50,SN12C,1920 nM
same,TGI,SN12C,4820 nM
same,growth at 10 µM,OVCAR-8,8%
same,growth at 0.01 µM,MDA-MB-435 [15],89%
same,growth at 0.1 µM,KM12,100%
same,GI50,COLO 205,1550 nM
same,TGI,COLO 205,3100 nM
same,growth at 0.1 µM,Malme-3M [16],106%
COc1ccc(-c2cc(/C=C/C(=O)c3ccc4c(c3)OCO4)[nH]n2)cc1OC,GI50,MDA-MB-435 [1],1720 nM
same,GI50,K562 [2],610 nM
same,GI50,T47D,1360 nM
same,GI50,SN12C,4960 nM
same,GI50,COLO 205,1550 nM
